Drawing on patent US20260285857A1, “BICYCLIC AND HETEROCYCLIC AMIDE COMPOUNDS” (priority 2024, published 2026), this text covers DSF for 24 compounds.

The test deals with immunoglobulin light chain protein WIL-FL T46L. As to the kind of experiment: Differential scanning fluorimetry (thermal shift) assay. It is filed as binding. The following applies: Table B; temperature shift [Tm]compound-[Tm]vehicle; recombinant WIL-FL T46L.

As to `Cc1cc(C(=O)O)cc(N2CC[C@@]3(CCN(C(=O)c4nc5c(C)cc(N6CC[C@](C)(c7ccccc7)C6)cn5n4)C3)C2)n1` [Compound 729, 2-methyl-6-((R)-7-(8-methyl-6-((R)-3-methyl-3-phenylpyrrolidin-1-yl)-[1,2,4]triazolo[1,5-a]pyridine-2-carbonyl)-2,7-diazaspiro[4.4]nonan-2-yl)isonicotinic acid], the DSF entry was “***** (>2.5° C.=*****)”.

`Cc1cc(N2CC[C@](C)(c3ccccc3)C2)cn2nc(C(=O)N3CCC4(CCN(c5cnnc(C(=O)O)c5)C4)C3)nc12` (stereo partly drawn) [Compound 730, 5-(7-(8-methyl-6-((R)-3-methyl-3-phenylpyrrolidin-1-yl)-[1,2,4]triazolo[1,5-a]pyridine-2-carbonyl)-2,7-diazaspiro[4.4]nonan-2-yl)pyridazine-3-carboxylic acid]: the DSF entry is reported as “***** (>2.5° C.=*****)”.

As for `Cc1cc(N2CC[C@](C)(c3ccccc3)C2)cn2nc(C(=O)N3CC[C@@]4(CCN(C(=O)CC(C)(O)C(=O)O)C4)C3)nc12` (stereo partly drawn) [Compound 731, 2-hydroxy-2-methyl-4-[(5R)-2-[8-methyl-6-[(3R)-3-methyl-3-phenyl-pyrrolidin-1-yl]-[1,2,4]triazolo[1,5-a]pyridine-2-carbonyl]-2,7-diazaspiro[4.4]nonan-7-yl]-4-oxo-butanoic acid], the DSF result is given as “***** (>2.5° C.=*****)”.

Take `Cc1cc(N2CC[C@](C)(c3ccccc3)C2)cn2nc(C(=O)N3CC[C@@]4(CCN(C(=O)C56CCC(C(=O)O)(CC5)OC6)C4)C3)nc12` [Compound 732]: the DSF result is “***** (>2.5° C.=*****)”.

Consider `Cc1cc(N2CC[C@](C)(c3ccccc3)C2)cn2nc(C(=O)N3CC[C@@]4(CCN(C(=O)C56CCCC(C(=O)O)(C5)C6)C4)C3)nc12` [Compound 733, 5-((R)-7-(8-methyl-6-((R)-3-methyl-3-phenylpyrrolidin-1-yl)-[1,2,4]triazolo[1,5-a]pyridine-2-carbonyl)-2,7-diazaspiro[4.4]nonane-2-carbonyl)bicyclo[3.1.1]heptane-1-carboxylic acid], for which the DSF result is “***** (>2.5° C.=*****)”.

Turning to `Cc1cc(N2CC[C@](C)(c3ccccc3)C2)cn2nc(C(=O)N3CC[C@@]4(CCN(C(=O)C5CC56CC(C(=O)O)C6)C4)C3)nc12` (stereo partly drawn) [Compound 734], the DSF entry was “***** (>2.5° C.=*****)”.

Take `Cc1cc(N2CCC(C)(n3ccc(C(F)F)n3)C2)cn2nc(C(=O)N3CC[C@@]4(CCN(c5cccc(C(=O)O)n5)C4)C3)nc12` (stereo partly drawn) [Compound 735, 6-[(5R)-2-[6-[3-[3-(difluoromethyl)pyrazol-1-yl]-3-methyl-pyrrolidin-1-yl]-8-methyl-[1,2,4]triazolo[1,5-a]pyridine-2-carbonyl]-2,7-diazaspiro[4.4]nonan-7-yl]pyridine-2-carboxylic acid]: the DSF result is reported as “**** (>1.5-2.5° C.=****)”.

For the compound `Cc1cc(N2CC3(CC[C@H]3c3cccc(F)c3)C2)cn2nc(C(=O)N3CC[C@@]4(CCN(c5cccc(C(=O)O)n5)C4)C3)nc12` [Compound 736, 6-[(5R)-2-[6-[(7S)-7-(3-fluorophenyl)-2-azaspiro[3.3]heptan-2-yl]-8-methyl-[1,2,4]triazolo[1,5-a]pyridine-2-carbonyl]-2,7-diazaspiro[4.4]nonan-7-yl]pyridine-2-carboxylic acid], the DSF entry is “***** (>2.5° C.=*****)”.

`Cc1cc(N2CC3(CCC3c3cccc(F)c3)C2)cn2nc(C(=O)N3CC[C@@]4(CCN(c5cccc(C(=O)O)n5)C4)C3)nc12` (stereo partly drawn) [Compound 737]: the DSF entry was “***** (>2.5° C.=*****)”.

For the compound `Cc1cc(N2CC3(CCC3c3cccc(F)c3)C2)cn2nc(C(=O)N3CC[C@@]4(CCN(c5cccc(C(=O)O)n5)C4)C3)nc12` (stereo partly drawn) [Compound 738], the DSF result is “***** (>2.5° C.=*****)”.

For the compound `Cc1cc(N2CC3(CCC3c3cccc(F)c3)C2)cn2nc(C(=O)N3C[C@@H]4CN(c5cccc(C(=O)O)n5)C[C@@H]4C3)nc12` (stereo partly drawn) [Compound 739], the DSF entry was “***** (>2.5° C.=*****)”.

Take `Cc1cc(N2CC3(CCC3c3cccc(Cl)c3)C2)cn2nc(C(=O)N3CC[C@@]4(CCN(c5cccc(C(=O)O)n5)C4)C3)nc12` (stereo partly drawn) [Compound 740]: the DSF result is on record as “**** (>1.5-2.5° C.=****)”.

In the case of `Cc1cc(N2CC[C@@](C)(n3ccc(C(F)(F)F)n3)C2)cn2nc(C(=O)N3CC[C@@]4(CCN(c5cccc(C(=O)O)n5)C4)C3)nc12` [Compound 741], the DSF entry was “***** (>2.5° C.=*****)”.

On to `Cc1cc(N2CC[C@](C)(n3ccc(C(F)(F)F)n3)C2)cn2nc(C(=O)N3CC[C@@]4(CCN(c5cccc(C(=O)O)n5)C4)C3)nc12` [Compound 742], for which the DSF result was “***** (>2.5° C.=*****)”.

Consider `Cc1cc(N2CC3(CC[C@@]3(C)c3ccccc3)C2)cn2nc(C(=O)N3CC[C@@]4(CCN(c5cccc(C(=O)O)n5)C4)C3)nc12` [Compound 743, 6-[(5R)-2-[8-methyl-6-[(7S)-7-methyl-7-phenyl-2-azaspiro[3.3]heptan-2-yl]-[1,2,4]triazolo[1,5-a]pyridine-2-carbonyl]-2,7-diazaspiro[4.4]nonan-7-yl]pyridine-2-carboxylic acid], for which the DSF result is listed as “***** (>2.5° C.=*****)”.

Turning to `Cc1cc(N2CCC(C)(n3cc(C(F)(F)F)cn3)C2)cn2nc(C(=O)N3CC[C@@]4(CCN(c5cccc(C(=O)O)n5)C4)C3)nc12` (stereo partly drawn) [Compound 744, 6-[(5R)-2-[8-methyl-6-[3-methyl-3-[4-(trifluoromethyl)pyrazol-1-yl]pyrrolidin-1-yl]-[1,2,4]triazolo[1,5-a]pyridine-2-carbonyl]-2,7-diazaspiro[4.4]nonan-7-yl]pyridine-2-carboxylic acid], the DSF result was “***** (>2.5° C.=*****)”.

Regarding `Cc1ccn(C2(C)CCN(c3cc(C)c4nc(C(=O)N5CC[C@@]6(CCN(c7cccc(C(=O)O)n7)C6)C5)nn4c3)C2)n1` (stereo partly drawn) [Compound 745], the DSF result was “*** (>1-1.5° C.=***)”.

For `Cc1cc(N2CC[C@](C)(c3cccc(Cl)c3)C2)cn2nc(C(=O)N3CC[C@@]4(CCN(c5cccc(C(=O)O)n5)C4)C3)nc12` [Compound 747], the DSF entry is reported as “***** (>2.5° C.=*****)”.

Turning to `Cc1cc(N2CC[C@](C)(c3ccc(F)c(Cl)c3)C2)cn2nc(C(=O)N3CC[C@@]4(CCN(c5cccc(C(=O)O)n5)C4)C3)nc12` [Compound 748], the DSF entry is reported as “***** (>2.5° C.=*****)”.

`Cc1cc(N2CC[C@](C)(c3ccccc3F)C2)cn2nc(C(=O)N3CC[C@@]4(CCN(c5cccc(C(=O)O)n5)C4)C3)nc12` [Compound 749]: the DSF entry was “***** (>2.5° C.=*****)”.

On to `Cc1ccc([C@@]2(C)CCN(c3cc(C)c4nc(C(=O)N5CC[C@@]6(CCN(c7cccc(C(=O)O)n7)C6)C5)nn4c3)C2)cc1` [Compound 750], for which the DSF entry is “***** (>2.5° C.=*****)”.

As to `Cc1cc(N2CC[C@](C)(c3ccc(Cl)c(F)c3)C2)cn2nc(C(=O)N3CC[C@@]4(CCN(c5cccc(C(=O)O)n5)C4)C3)nc12` [Compound 751], the DSF entry is recorded as “***** (>2.5° C.=*****)”.

Consider `Cc1cc(N2CC(CF)(c3ccccc3)C2)cn2nc(C(=O)N3CC[C@@]4(CCN(c5cccc(C(=O)O)n5)C4)C3)nc12` [Compound 752, 6-[(5R)-2-[6-[3-(fluoromethyl)-3-phenyl-azetidin-1-yl]-8-methyl-[1,2,4]triazolo[1,5-a]pyridine-2-carbonyl]-2,7-diazaspiro[4.4]nonan-7-yl]pyridine-2-carboxylic acid], for which the DSF result was “***** (>2.5° C.=*****)”.

For the compound `Cc1cc(N2CC[C@](C)(c3cccc(F)c3)C2)cn2nc(C(=O)N3CC[C@@]4(CCN(c5cccc(C(=O)O)n5)C4)C3)nc12` [Compound 755], the DSF entry is on record as “***** (>2.5° C.=*****)”.
